Results taken from article PMC4823954, “From fighting depression to conquering tumors: a novel tricyclic thiazepine compound as a tubulin polymerization inhibitor” (Cell Death & Disease, 2016).

How the values were obtained:
Test in all cases: KINOMEscan
Assay type in all cases: binding
Settings in all cases: read-out: % Ctrl
[1] = target: T1, PDGFRA (Homo sapiens, UniProt P16234)
T1 construct: purchased DiscoveRx KINOMEscan
How it was run: (§1)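 Competition binding panel of 442 non-mutant kinases: test compound at 5 and 10 μM competed with an active-site-directed ligand for 1 h with shaking. Bound kinase was eluted with 0.5 μM ligand and quantified by qPCR; %Ctrl = (compound − positive control)/(DMSO − positive control) × 100, lower meaning tighter binding.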

[2] = target: T2, TYK2(JH1domain-catalytic) (Homo sapiens, UniProt P29597)
T2 construct: TYK2(JH1domain-catalytic); purchased DiscoveRx KINOMEscan
T2 sequence (P29597 888-1187 limits assumed): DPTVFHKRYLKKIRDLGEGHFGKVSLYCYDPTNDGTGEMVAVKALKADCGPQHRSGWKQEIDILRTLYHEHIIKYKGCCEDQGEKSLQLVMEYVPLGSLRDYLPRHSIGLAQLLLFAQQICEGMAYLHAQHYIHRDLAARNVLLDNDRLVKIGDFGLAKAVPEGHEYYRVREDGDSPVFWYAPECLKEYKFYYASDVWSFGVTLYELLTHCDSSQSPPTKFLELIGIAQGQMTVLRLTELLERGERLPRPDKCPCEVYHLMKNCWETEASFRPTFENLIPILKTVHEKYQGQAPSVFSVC
How it was run: as §1

[3] = target: T3, TYRO3 (Homo sapiens, UniProt Q06418)
T3 construct: purchased DiscoveRx KINOMEscan
How it was run: as §1

[4] = target: T4, MAP4K4 (Homo sapiens, UniProt O95819)
T4 construct: purchased DiscoveRx KINOMEscan
How it was run: as §1

[5] = target: T5, CAMK2A (Homo sapiens, UniProt Q9UQM7)
T5 construct: purchased DiscoveRx KINOMEscan
How it was run: as §1

[6] = target: T6, HPK1 (Homo sapiens, UniProt Q92918)
T6 construct: purchased DiscoveRx KINOMEscan
How it was run: as §1

[7] = target: T7, PRKD3 (Homo sapiens, UniProt O94806)
T7 construct: purchased DiscoveRx KINOMEscan
How it was run: as §1

[8] = target: T8, ERK2 (Homo sapiens, UniProt P28482)
T8 construct: purchased DiscoveRx KINOMEscan
T8 sequence (P28482 whole entry): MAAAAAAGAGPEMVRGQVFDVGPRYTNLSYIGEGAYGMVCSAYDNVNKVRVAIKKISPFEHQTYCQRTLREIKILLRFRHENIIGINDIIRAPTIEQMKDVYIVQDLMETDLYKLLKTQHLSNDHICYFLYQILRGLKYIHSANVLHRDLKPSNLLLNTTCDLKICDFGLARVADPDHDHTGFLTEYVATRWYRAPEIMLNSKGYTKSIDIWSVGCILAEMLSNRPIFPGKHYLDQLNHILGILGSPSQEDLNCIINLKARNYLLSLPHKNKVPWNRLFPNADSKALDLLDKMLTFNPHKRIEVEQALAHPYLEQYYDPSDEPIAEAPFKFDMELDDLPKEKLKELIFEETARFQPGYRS
How it was run: as §1

[9] = target: T9, CDK7 (Homo sapiens, UniProt P50613)
T9 construct: purchased DiscoveRx KINOMEscan
How it was run: as §1

[10] = target: T10, ADCK3 (Homo sapiens, UniProt Q8NI60)
T10 construct: purchased DiscoveRx KINOMEscan
How it was run: as §1

[11] = target: T11, EGFR(E746-A750del) (Homo sapiens, UniProt P00533, DEL746-750)
T11 construct: purchased DiscoveRx KINOMEscan

[12] = target: T12, MST3 (Homo sapiens, UniProt Q9Y6E0)
T12 construct: purchased DiscoveRx KINOMEscan
T12 sequence (Q9Y6E0 whole entry): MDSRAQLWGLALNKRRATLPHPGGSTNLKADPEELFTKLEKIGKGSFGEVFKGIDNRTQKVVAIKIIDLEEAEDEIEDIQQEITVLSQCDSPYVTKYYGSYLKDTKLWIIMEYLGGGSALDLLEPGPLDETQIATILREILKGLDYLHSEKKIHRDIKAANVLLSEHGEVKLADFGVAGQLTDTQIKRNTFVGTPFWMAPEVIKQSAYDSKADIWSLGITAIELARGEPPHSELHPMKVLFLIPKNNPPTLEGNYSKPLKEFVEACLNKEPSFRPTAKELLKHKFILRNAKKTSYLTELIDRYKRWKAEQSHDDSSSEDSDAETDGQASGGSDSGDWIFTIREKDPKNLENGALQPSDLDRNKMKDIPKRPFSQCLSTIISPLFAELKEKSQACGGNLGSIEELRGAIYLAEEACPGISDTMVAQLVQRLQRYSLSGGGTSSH
How it was run: as §1

[13] = target: T13, PKN2 (Homo sapiens, UniProt Q16513)
T13 construct: purchased DiscoveRx KINOMEscan
How it was run: as §1

[14] = target: T14, CHEK2 (Homo sapiens, UniProt O96017)
T14 construct: purchased DiscoveRx KINOMEscan
How it was run: as §1

[15] = target: T15, RIPK1 (Homo sapiens, UniProt Q13546)
T15 construct: purchased DiscoveRx KINOMEscan
T15 sequence (Q13546 whole entry): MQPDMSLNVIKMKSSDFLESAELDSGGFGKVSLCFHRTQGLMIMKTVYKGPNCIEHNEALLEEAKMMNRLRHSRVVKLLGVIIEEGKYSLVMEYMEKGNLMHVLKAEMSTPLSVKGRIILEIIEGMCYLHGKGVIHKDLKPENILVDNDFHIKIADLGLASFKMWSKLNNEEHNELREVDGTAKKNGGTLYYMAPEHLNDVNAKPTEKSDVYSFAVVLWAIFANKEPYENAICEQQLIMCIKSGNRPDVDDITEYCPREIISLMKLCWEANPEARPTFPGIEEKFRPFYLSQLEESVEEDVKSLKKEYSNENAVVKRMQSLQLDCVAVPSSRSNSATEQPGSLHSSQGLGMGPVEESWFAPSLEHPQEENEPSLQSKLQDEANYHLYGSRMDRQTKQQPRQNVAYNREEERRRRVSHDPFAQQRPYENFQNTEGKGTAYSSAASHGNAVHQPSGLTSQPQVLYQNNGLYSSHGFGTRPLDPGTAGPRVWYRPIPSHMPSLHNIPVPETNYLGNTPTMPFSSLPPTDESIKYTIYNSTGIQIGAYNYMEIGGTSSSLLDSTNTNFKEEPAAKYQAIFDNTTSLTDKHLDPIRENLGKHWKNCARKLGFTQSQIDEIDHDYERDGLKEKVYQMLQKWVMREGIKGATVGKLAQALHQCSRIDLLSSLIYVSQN
How it was run: as §1

[16] = target: T16, LIMK2 (Homo sapiens, UniProt P53671)
T16 construct: purchased DiscoveRx KINOMEscan
How it was run: as §1

[17] = target: T17, PIK3CA(I800L) (Homo sapiens, UniProt P42336, I800L)
T17 construct: purchased DiscoveRx KINOMEscan

[18] = target: T18, CDKL5 (Homo sapiens, UniProt O76039)
T18 construct: purchased DiscoveRx KINOMEscan
How it was run: as §1

[19] = target: T19, DYRK1A (Homo sapiens, UniProt Q13627)
T19 construct: purchased DiscoveRx KINOMEscan
How it was run: as §1

[20] = target: T20, CDKL2 (Homo sapiens, UniProt Q92772)
T20 construct: purchased DiscoveRx KINOMEscan
T20 sequence (Q92772 whole entry): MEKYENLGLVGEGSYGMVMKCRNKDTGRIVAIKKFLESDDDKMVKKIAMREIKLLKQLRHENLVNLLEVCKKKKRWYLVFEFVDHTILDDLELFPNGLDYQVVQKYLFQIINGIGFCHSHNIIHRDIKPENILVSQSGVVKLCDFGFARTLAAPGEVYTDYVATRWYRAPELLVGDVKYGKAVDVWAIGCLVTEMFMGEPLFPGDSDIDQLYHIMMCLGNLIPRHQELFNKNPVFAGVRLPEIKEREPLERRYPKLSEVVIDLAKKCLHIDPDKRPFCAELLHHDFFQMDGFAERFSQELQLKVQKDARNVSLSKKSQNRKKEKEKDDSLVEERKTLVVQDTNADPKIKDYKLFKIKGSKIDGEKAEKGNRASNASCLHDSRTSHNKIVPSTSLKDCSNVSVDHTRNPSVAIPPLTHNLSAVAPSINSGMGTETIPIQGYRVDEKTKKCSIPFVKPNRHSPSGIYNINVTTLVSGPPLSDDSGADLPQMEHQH
How it was run: as §1

[21] = target: T21, MLK2 (Homo sapiens, UniProt Q02779)
T21 construct: purchased DiscoveRx KINOMEscan
How it was run: as §1

[22] = target: T22, CSNK1A1 (Homo sapiens, UniProt P48729)
T22 construct: purchased DiscoveRx KINOMEscan
How it was run: as §1

[23] = target: T23, LCK (Homo sapiens, UniProt P06239)
T23 construct: purchased DiscoveRx KINOMEscan
How it was run: as §1

[24] = target: T24, p38-beta (Homo sapiens, UniProt Q15759)
T24 construct: purchased DiscoveRx KINOMEscan
T24 sequence (Q15759 whole entry): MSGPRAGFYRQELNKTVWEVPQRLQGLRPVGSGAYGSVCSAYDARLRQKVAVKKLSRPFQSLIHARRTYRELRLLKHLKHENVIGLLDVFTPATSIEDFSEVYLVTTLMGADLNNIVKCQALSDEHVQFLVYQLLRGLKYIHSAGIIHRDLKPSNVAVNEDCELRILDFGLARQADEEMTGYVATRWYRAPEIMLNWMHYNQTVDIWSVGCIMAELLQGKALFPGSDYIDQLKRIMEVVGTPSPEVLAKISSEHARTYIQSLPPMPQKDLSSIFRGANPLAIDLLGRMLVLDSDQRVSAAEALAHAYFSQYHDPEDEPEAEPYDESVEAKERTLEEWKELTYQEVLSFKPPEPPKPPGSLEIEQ
How it was run: as §1

[25] = target: T25, GAK (Homo sapiens, UniProt O14976)
T25 construct: purchased DiscoveRx KINOMEscan
How it was run: as §1

[26] = target: T26, RIOK2 (Homo sapiens, UniProt Q9BVS4)
T26 construct: purchased DiscoveRx KINOMEscan
How it was run: as §1

[27] = target: T27, FLT3(R834Q) (Homo sapiens, UniProt P36888, R834Q)
T27 construct: purchased DiscoveRx KINOMEscan

[28] = target: T28, PIP5K2B (Homo sapiens, UniProt P78356)
T28 construct: purchased DiscoveRx KINOMEscan
How it was run: as §1

[29] = target: T29, MYO3B (Homo sapiens, UniProt Q8WXR4)
T29 construct: purchased DiscoveRx KINOMEscan
T29 sequence (Q8WXR4 whole entry): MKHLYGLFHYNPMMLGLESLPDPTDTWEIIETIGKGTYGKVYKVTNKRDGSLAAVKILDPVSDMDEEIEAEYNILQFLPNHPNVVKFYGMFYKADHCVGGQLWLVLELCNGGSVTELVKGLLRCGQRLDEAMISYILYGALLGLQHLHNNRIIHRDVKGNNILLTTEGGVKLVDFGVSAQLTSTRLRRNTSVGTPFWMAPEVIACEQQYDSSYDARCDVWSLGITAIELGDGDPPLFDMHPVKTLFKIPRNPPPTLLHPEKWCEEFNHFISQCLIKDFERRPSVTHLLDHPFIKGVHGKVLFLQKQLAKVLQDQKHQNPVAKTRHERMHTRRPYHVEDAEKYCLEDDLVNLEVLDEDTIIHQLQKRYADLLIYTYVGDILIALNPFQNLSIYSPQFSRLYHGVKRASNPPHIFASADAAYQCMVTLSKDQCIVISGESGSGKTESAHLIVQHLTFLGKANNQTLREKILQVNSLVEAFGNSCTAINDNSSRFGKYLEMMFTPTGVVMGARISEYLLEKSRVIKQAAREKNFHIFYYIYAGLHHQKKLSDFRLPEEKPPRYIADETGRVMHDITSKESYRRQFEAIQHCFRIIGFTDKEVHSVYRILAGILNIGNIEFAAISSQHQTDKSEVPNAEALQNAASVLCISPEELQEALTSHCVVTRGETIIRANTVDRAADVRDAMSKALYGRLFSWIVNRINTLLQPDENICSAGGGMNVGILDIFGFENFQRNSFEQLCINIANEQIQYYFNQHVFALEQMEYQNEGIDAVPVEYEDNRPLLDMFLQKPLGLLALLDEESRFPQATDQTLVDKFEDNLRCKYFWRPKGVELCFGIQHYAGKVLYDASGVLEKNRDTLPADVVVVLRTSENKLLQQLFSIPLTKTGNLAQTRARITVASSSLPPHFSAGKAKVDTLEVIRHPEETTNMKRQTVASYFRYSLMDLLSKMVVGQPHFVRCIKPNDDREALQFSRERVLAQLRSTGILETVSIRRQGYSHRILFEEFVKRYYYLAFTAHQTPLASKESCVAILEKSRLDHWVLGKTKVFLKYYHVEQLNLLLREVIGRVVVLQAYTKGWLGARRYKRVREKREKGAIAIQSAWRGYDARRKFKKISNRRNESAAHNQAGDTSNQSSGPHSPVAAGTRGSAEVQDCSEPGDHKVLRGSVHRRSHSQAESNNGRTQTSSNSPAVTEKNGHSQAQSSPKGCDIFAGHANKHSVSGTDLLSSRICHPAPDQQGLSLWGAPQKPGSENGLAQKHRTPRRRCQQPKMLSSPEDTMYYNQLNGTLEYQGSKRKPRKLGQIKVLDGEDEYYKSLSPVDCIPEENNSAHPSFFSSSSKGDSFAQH
How it was run: as §1

[30] = target: T30, PCTK1 (Homo sapiens, UniProt Q00536)
T30 construct: purchased DiscoveRx KINOMEscan
How it was run: as §1

T1 sequence (P16234 24-1089): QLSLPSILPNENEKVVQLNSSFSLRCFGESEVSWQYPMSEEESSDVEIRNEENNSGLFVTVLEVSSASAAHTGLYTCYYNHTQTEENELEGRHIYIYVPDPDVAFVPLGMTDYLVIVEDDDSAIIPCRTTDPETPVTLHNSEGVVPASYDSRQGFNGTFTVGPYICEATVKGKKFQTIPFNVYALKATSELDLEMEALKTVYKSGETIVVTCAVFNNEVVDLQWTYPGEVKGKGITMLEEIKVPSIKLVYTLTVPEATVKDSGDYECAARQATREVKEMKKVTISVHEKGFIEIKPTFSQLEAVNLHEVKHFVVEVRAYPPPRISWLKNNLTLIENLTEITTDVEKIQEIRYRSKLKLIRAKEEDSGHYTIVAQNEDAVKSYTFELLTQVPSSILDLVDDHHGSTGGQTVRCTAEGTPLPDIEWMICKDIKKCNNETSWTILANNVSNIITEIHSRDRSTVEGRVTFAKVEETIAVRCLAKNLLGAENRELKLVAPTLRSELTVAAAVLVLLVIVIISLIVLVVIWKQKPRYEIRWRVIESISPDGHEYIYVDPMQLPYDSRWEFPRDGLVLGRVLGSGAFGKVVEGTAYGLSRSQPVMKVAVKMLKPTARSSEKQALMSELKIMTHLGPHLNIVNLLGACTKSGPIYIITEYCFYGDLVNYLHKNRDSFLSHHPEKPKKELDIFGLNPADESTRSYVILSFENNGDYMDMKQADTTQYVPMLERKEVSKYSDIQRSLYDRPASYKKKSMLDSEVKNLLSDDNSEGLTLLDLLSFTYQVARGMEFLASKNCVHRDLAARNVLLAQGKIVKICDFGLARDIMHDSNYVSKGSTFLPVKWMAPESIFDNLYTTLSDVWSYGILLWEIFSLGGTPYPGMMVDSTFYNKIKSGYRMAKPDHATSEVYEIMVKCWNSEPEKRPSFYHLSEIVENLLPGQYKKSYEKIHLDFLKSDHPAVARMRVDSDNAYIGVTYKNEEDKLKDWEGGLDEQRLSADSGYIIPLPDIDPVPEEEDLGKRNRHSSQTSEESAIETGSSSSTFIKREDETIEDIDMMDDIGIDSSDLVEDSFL

Cc1ccc(C2=Nc3cccnc3S(=O)(=O)c3ccccc32)cc1 [TBPT, 6-(p-tolyl)benzo[f] pyrido[2,3-b][1,4] thiazepine 11,11-dioxide]
remaining binding at 5 µM ([1]; 5 μM): 100%
remaining binding at 10 µM ([1]; 10 μM): 100%
remaining binding at 5 µM ([2]; 5 μM): 69%
remaining binding at 10 µM ([2]; 10 μM): 100%
remaining binding at 5 µM ([3]; 5 μM): 99%
remaining binding at 10 µM ([3]; 10 μM): 100%
remaining binding at 5 µM ([4]; 5 μM): 94%
remaining binding at 10 µM ([4]; 10 μM): 63%
remaining binding at 5 µM ([5]; 5 μM): 100%
remaining binding at 10 µM ([5]; 10 μM): 87%
remaining binding at 5 µM ([6]; 5 μM): 93%
remaining binding at 10 µM ([6]; 10 μM): 100%
remaining binding at 5 µM ([7]; 5 μM): 100%
remaining binding at 10 µM ([7]; 10 μM): 78%
remaining binding at 5 µM ([8]; 5 μM): 76%
remaining binding at 10 µM ([8]; 10 μM): 92%
remaining binding at 5 µM ([9]; 5 μM): 83%
remaining binding at 10 µM ([9]; 10 μM): 100%
remaining binding at 5 µM ([10]; 5 μM): 98%
remaining binding at 10 µM ([10]; 10 μM): 100%
remaining binding at 5 µM ([11]; 5 μM): 81%
remaining binding at 10 µM ([11]; 10 μM): 100%
remaining binding at 5 µM ([12]; 5 μM): 95%
remaining binding at 10 µM ([12]; 10 μM): 96%
remaining binding at 5 µM ([13]; 5 μM): 100%
remaining binding at 10 µM ([13]; 10 μM): 95%
remaining binding at 5 µM ([14]; 5 μM): 100%
remaining binding at 10 µM ([14]; 10 μM): 100%
remaining binding at 5 µM ([15]; 5 μM): 100%
remaining binding at 10 µM ([15]; 10 μM): 100%
remaining binding at 5 µM ([16]; 5 μM): 91%
remaining binding at 10 µM ([16]; 10 μM): 100%
remaining binding at 5 µM ([17]; 5 μM): 98%
remaining binding at 10 µM ([17]; 10 μM): 72%
remaining binding at 5 µM ([18]; 5 μM): 100%
remaining binding at 10 µM ([18]; 10 μM): 100%
remaining binding at 5 µM ([19]; 5 μM): 88%
remaining binding at 10 µM ([19]; 10 μM): 100%
remaining binding at 5 µM ([20]; 5 μM): 95%
remaining binding at 10 µM ([20]; 10 μM): 100%
remaining binding at 5 µM ([21]; 5 μM): 70%
remaining binding at 10 µM ([21]; 10 μM): 100%
remaining binding at 5 µM ([22]; 5 μM): 100%
remaining binding at 10 µM ([22]; 10 μM): 86%
remaining binding at 5 µM ([23]; 5 μM): 97%
remaining binding at 10 µM ([23]; 10 μM): 100%
remaining binding at 5 µM ([24]; 5 μM): 100%
remaining binding at 10 µM ([24]; 10 μM): 76%
remaining binding at 5 µM ([25]; 5 μM): 100%
remaining binding at 10 µM ([25]; 10 μM): 90%
remaining binding at 5 µM ([26]; 5 μM): 95%
remaining binding at 10 µM ([26]; 10 μM): 100%
remaining binding at 5 µM ([27]; 5 μM): 89%
remaining binding at 10 µM ([27]; 10 μM): 100%
remaining binding at 5 µM ([28]; 5 μM): 100%
remaining binding at 10 µM ([28]; 10 μM): 100%
remaining binding at 5 µM ([29]; 5 μM): 100%
remaining binding at 10 µM ([29]; 10 μM): 100%
remaining binding at 5 µM ([30]; 5 μM): 90%
remaining binding at 10 µM ([30]; 10 μM): 100%
